# PMC11992225, “Antibacterial compounds against non-growing and intracellular bacteria” (npj Antimicrobials and Resistance, 2025)
# Read-outs that look alike come from different tables or passages of the source.
# Legend:
# P. aeruginosa DSM1117 = assay: MIC, standard microdilution assay, growing P. aeruginosa; type: cell-based, Pseudomonas aeruginosa; conditions: P. aeruginosa
# Summary of the method: (§1)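 Standard microdilution protocol, triplicate wells. For S. flexneri the growth medium is TSB. The other three strains are grown in HEPES-buffered (40 mM, pH 7.4) CA-MHB, and UPEC is also run at pH 5.5 in LPM containing 30 mM MES.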
# S. aureus DSM2569 = assay: MIC, standard microdilution assay, growing S. aureus; type: cell-based, Staphylococcus aureus; conditions: S. aureus, CA-MHB pH 7.4, read-out: MIC (μM) CA-MHB
# Summary of the method: as §1
# non-growing UPEC CFT073 = assay: Dilution-regrowth assay (screen, hit validation, dose-response) on stationary-phase UPEC; type: cell-based, Escherichia coli; conditions: for Regrowth: OD600 after dilution into drug-free medium (mean): OD600 at 6h or 8h; for Regrowth, OD600 at 6h or 8h after dilution into drug-free medium: average
# Summary of the method: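 Regrowth (OD600 after 6 h, 37 °C) of diluted non-growing CFT073, following 24 h compound treatment of 24 h stationary cultures, defines activity relative to untreated control. Screen at 20 µM, validation at 20, 10, 5 µM (duplicates), dose–response in three biological replicates fitted by five-parameter logistic.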
# E. coli CFT073 (UPEC) = assay: MIC, standard microdilution assay, growing UPEC; type: cell-based, Escherichia coli; conditions: E. coli
# Summary of the method: as §1
# S. flexneri 5a M90T = assay: MIC in tryptic soy broth, S. flexneri; type: cell-based, Shigella flexneri; conditions: for MIC (μM) TSB: S. flexneri, extracellular bacteria in TSB
# Summary of the method: as §1
# [1] = CA-MHB pH 7.4, read-out: MIC (μM) CA-MHB
# [2] = E. coli in 1:4 CA-MHB (pH 7.4), concentration 0.25
# [3] = E. coli in 1:4 CA-MHB (pH 7.4), concentration 0.5
# [4] = E. coli in 1:4 CA-MHB (pH 7.4), concentration 1
# [5] = E. coli in 1:4 CA-MHB (pH 7.4), concentration 2.5
# [6] = E. coli in 1:4 CA-MHB (pH 7.4), concentration 5
# [7] = E. coli in 1:4 CA-MHB (pH 7.4), concentration 10
# [8] = E. coli in 1:4 CA-MHB (pH 7.4), concentration 30
# [9] = E. coli in LPM (pH 5.5), concentration 0.25
# [10] = E. coli in LPM (pH 5.5), concentration 0.5
# [11] = E. coli in LPM (pH 5.5), concentration 1
# [12] = E. coli in LPM (pH 5.5), concentration 2.5
# [13] = E. coli in LPM (pH 5.5), concentration 5
# [14] = E. coli in LPM (pH 5.5), concentration 10
# [15] = E. coli in LPM (pH 5.5), concentration 30
# [16] = E. coli, LPM pH 5.5, regrowth delay of non-growing bacteria, 24 h treatment, OD600 6 h after 2500-fold dilution, read-out: EC50
# [17] = pH 7.4, CA-MHB, read-out: MIC (μM) CA-MHB
smiles,measurement,setting,value
CO[C@H]1/C=C/O[C@@]2(C)Oc3c(C)c(O)c4c(O)c(c(/C=N/N=C/N5CCCCC5)c(O)c4c3C2=O)NC(=O)/C(C)=C\C=C\[C@H](C)[C@H](O)[C@@H](C)[C@@H](O)[C@@H](C)[C@H](OC(C)=O)[C@@H]1C [FCE-22250],MIC,"P. aeruginosa DSM1117; 1:4 diluted CA-MHB pH 7.4, read-out: MIC (μM) 1:4 CA-MHB",10 µM
same,MIC,P. aeruginosa DSM1117; [1],>160 µM
same,MIC,S. aureus DSM2569,0.0125 µM
same,Regrowth: OD600 after dilution into drug-free medium (mean),non-growing UPEC CFT073; [2],0.613
same,Regrowth: OD600 after dilution into drug-free medium (mean),non-growing UPEC CFT073; [3],0.587
same,Regrowth: OD600 after dilution into drug-free medium (mean),non-growing UPEC CFT073; [4],0.569
same,Regrowth: OD600 after dilution into drug-free medium (mean),non-growing UPEC CFT073; [5],0.549
same,Regrowth: OD600 after dilution into drug-free medium (mean),non-growing UPEC CFT073; [6],0.529
same,Regrowth: OD600 after dilution into drug-free medium (mean),non-growing UPEC CFT073; [7],0.515
same,Regrowth: OD600 after dilution into drug-free medium (mean),non-growing UPEC CFT073; [8],0.347
same,Regrowth: OD600 after dilution into drug-free medium (mean),non-growing UPEC CFT073; [9],0.566
same,Regrowth: OD600 after dilution into drug-free medium (mean),non-growing UPEC CFT073; [10],0.535
same,Regrowth: OD600 after dilution into drug-free medium (mean),non-growing UPEC CFT073; [11],0.500
same,Regrowth: OD600 after dilution into drug-free medium (mean),non-growing UPEC CFT073; [12],0.418
same,Regrowth: OD600 after dilution into drug-free medium (mean),non-growing UPEC CFT073; [13],0.299
same,Regrowth: OD600 after dilution into drug-free medium (mean),non-growing UPEC CFT073; [14],0.206
same,Regrowth: OD600 after dilution into drug-free medium (mean),non-growing UPEC CFT073; [15],0.134
same,EC50,non-growing UPEC CFT073; [16],3.97 µM
same,EC50,"non-growing UPEC CFT073; LPM pH 5.5 (red curve), medium assigned by comparison with Dataset 1, read-out: EC50 (regrowth inhibition curve, Fig. S4)",3.45 µM
same,MIC,"E. coli CFT073 (UPEC); LPM pH 5.5, read-out: MIC",2 µM
same,MIC,"E. coli CFT073 (UPEC); pH 7.4, 1:4 diluted CA-MHB, read-out: MIC (μM) 1:4 CA-MHB",10 µM
same,MIC (μM) CA-MHB +PAβN,"E. coli CFT073 (UPEC); pH 7.4, CA-MHB with 10 μg/ml efflux pump inhibitor PaβN",4 µM
same,MIC,E. coli CFT073 (UPEC); [17],8 µM
same,MIC (μM) TSB,S. flexneri 5a M90T,16 µM
N#Cc1c(N2C[C@@H]3NCCO[C@H]3C2)c(F)cc2c(=O)c(C(=O)O)cn(C3CC3)c12 [Finafloxacin],MIC,P. aeruginosa DSM1117; [1],20 µM
same,MIC,S. aureus DSM2569,0.5 µM
same,EC50,non-growing UPEC CFT073; [16],13.6 µM
same,EC50,"non-growing UPEC CFT073; E. coli, pH 7.4, regrowth delay of non-growing bacteria, 1:4 CA-MHB, 24 h treatment, OD600 6 h after 2500-fold dilution, read-out: EC50",7.19 µM
same,MIC,"E. coli CFT073 (UPEC); LPM pH 5.5, read-out: MIC",0.007812 µM
same,MIC,E. coli CFT073 (UPEC); [17],0.25 µM
same,MIC (μM) TSB,S. flexneri 5a M90T,0.125 µM
CC1COc2c(N3CCN(C)CC3)c(F)cc3c(=O)c(C(=O)O)cn1c23 (stereo not shown) [Ofloxacin],MIC,"P. aeruginosa DSM1117; Pseudomonas aeruginosa, DSM1117, CA-MHB pH 7.4, read-out: MIC (μM) CA-MHB",8 µM
same,MIC,"S. aureus DSM2569; Staphylococcus aureus, DSM2569",2 µM
same,"Regrowth, OD600 at 6h or 8h after dilution into drug-free medium",non-growing UPEC CFT073; [2],0.670
same,"Regrowth, OD600 at 6h or 8h after dilution into drug-free medium",non-growing UPEC CFT073; [3],0.686
same,"Regrowth, OD600 at 6h or 8h after dilution into drug-free medium",non-growing UPEC CFT073; [4],0.685
same,"Regrowth, OD600 at 6h or 8h after dilution into drug-free medium",non-growing UPEC CFT073; [5],0.648
same,"Regrowth, OD600 at 6h or 8h after dilution into drug-free medium",non-growing UPEC CFT073; [6],0.610
same,"Regrowth, OD600 at 6h or 8h after dilution into drug-free medium",non-growing UPEC CFT073; [7],0.563
same,"Regrowth, OD600 at 6h or 8h after dilution into drug-free medium",non-growing UPEC CFT073; [8],0.271
same,"Regrowth, OD600 at 6h or 8h after dilution into drug-free medium",non-growing UPEC CFT073; [9],0.591
same,"Regrowth, OD600 at 6h or 8h after dilution into drug-free medium",non-growing UPEC CFT073; [10],0.585
same,"Regrowth, OD600 at 6h or 8h after dilution into drug-free medium",non-growing UPEC CFT073; [11],0.589
same,"Regrowth, OD600 at 6h or 8h after dilution into drug-free medium",non-growing UPEC CFT073; [12],0.574
same,"Regrowth, OD600 at 6h or 8h after dilution into drug-free medium",non-growing UPEC CFT073; [13],0.582
same,"Regrowth, OD600 at 6h or 8h after dilution into drug-free medium",non-growing UPEC CFT073; [14],0.564
same,"Regrowth, OD600 at 6h or 8h after dilution into drug-free medium",non-growing UPEC CFT073; [15],0.570
same,MIC,"E. coli CFT073 (UPEC); Escherichia coli, pH 7.4, CA-MHB, read-out: MIC (μM) CA-MHB",0.25 µM
same,MIC,"S. flexneri 5a M90T; Shigella flexneri, 5AM90T, read-out: MIC (μM) TSB",0.125 µM
